Measurements as given in ChEMBL document CHEMBL1131581, “4H-1,2,4-Pyridothiadiazine 1,1-dioxides and 2,3-dihydro-4H-1,2, 4-pyridothiadiazine 1,1-dioxides chemically related to diazoxide and cyclothiazide as powerful positive allosteric modulators of (R/S)-2-amino-3-(3-hydroxy-5-methylisoxazol-4-yl)propionic acid receptors: design, synthesis, …” (J Med Chem, 1998).

What was measured:
[1] = Partition coefficient was measured in between 1-octanol and aqueous buffer solution of pH 7.4; type: physicochemical; conditions: 1-octanol/aqueous buffer
[2] = target: T1, Glutamate receptor ionotropic, AMPA (Rattus norvegicus) (UniProt P19491+P19492+P19493+P19490); test: Concentration of drug giving a 2-fold increase of the magnitude of the current induced by Ionotropic glutamate receptor AMPA (30 uM) and measured in Xenopus Oocytes expressing Rat Cortex AMPA Receptors; type: functional, cell-based
[3] = target: T1, Glutamate receptor ionotropic, AMPA (Rattus norvegicus); test: concentration of drug giving a 5-fold increase of the magnitude of the current induced by Ionotropic glutamate receptor AMPA (30 uM) and measured in Xenopus Oocytes expressing Rat Cortex AMPA Receptors; type: functional, cell-based
Rattus norvegicus [4] = organism: Rattus norvegicus; test: Residual insulin release from rat pancreatic islets incubated in the presence of an insulinotropic […] glucose concentration and at a 50 uM concentration of drug; type: functional
Rattus norvegicus [5] = organism: Rattus norvegicus; test: Effect on duration of the postsynaptic excitatory potentials induced by electric stimulation in rat hippocampal slices; type: functional, Hippocampus
Rattus norvegicus [6] = organism: Rattus norvegicus; test: Effect on amplitude of the postsynaptic excitatory potentials induced by electric stimulation in rat hippocampal slices; type: functional, Hippocampus
[7] = Ratio between the D50 value and the A50 value; type: functional
Rattus norvegicus [8] = organism: Rattus norvegicus; test: Concentration for 50 percent increase of the amplitude (A50) of the postsynaptic excitatory potentials induced by electric stimulation in rat hippocampal slices; type: functional, Hippocampus
Rattus norvegicus [9] = organism: Rattus norvegicus; test: Concentration for 50 percent increase of the duration (D50) of the postsynaptic excitatory potentials induced by electric stimulation in rat hippocampal slices; type: functional, Hippocampus

Structure (SMILES)	EC2x [2]	EC5X [3]	also measured
CC1Nc2ccncc2S(=O)(=O)N1 (stereo not given)	500 µM	> 1000 µM	logD [1]: 0.13; RIS (Rattus norvegicus [4]): 93.6%
CCCN1CNS(=O)(=O)c2cnccc21	300 µM	805 µM	–
CC1=NS(=O)(=O)c2cccnc2N1C	800 µM	> 1000 µM	–
CN1CNS(=O)(=O)c2cccnc21	200 µM	500 µM	–
CN1CN(C)S(=O)(=O)c2cnccc21	300 µM	> 1000 µM	–
CN1CNc2cccnc2S1(=O)=O	341 µM	766 µM	–
CN1CNc2ccncc2S1(=O)=O	> 1000 µM	> 1000 µM	–
O=S1(=O)NC(C2CCCCC2)Nc2ccncc21 (stereo not given)	> 1000 µM	> 1000 µM	–
CC(C)N1CN(C)S(=O)(=O)c2cnccc21	> 1000 µM	> 1000 µM	–
CCN1C=NS(=O)(=O)c2ncccc21	96 µM	186 µM	–
O=S1(=O)c2cnccc2NCN1C1CCCCC1	> 100 µM	> 100 µM	–
CCC1=NS(=O)(=O)c2cnccc2N1	> 1000 µM	> 1000 µM	–
CC1NS(=O)(=O)c2cnccc2N1C (stereo not given)	150 µM	450 µM	–
CCN1CN(CC)S(=O)(=O)c2ncccc21	87 µM	220 µM	–
CN1CNS(=O)(=O)c2cnccc21	63 µM	283 µM	D50 (Rattus norvegicus [5]): 130 µM; A50 (Rattus norvegicus [6]): 216 µM; RIS (Rattus norvegicus [4]): 95.8%; Ratio [7]: 0.6
COc1ccc(C(=O)N2CCCC2=O)cc1	1440 µM	> 3000 µM	D50 (Rattus norvegicus [5]): >2000 µM
CCN1CNS(=O)(=O)c2cnccc21	55 µM	195 µM	D50 (Rattus norvegicus [5]): 137 µM; A50 (Rattus norvegicus [6]): 222 µM; Ratio [7]: 0.6
CCCCCN1CNc2ccncc2S1(=O)=O	> 100 µM	> 100 µM	–
O=S1(=O)N=CNc2ccncc21	> 1000 µM	> 1000 µM	–

Structure (SMILES)	EC2x [2]	EC5X [3]	also measured
CCCN1CN(C)c2ccncc2S1(=O)=O	> 1000 µM	> 1000 µM	–
CN1CNS(=O)(=O)c2ncccc21	21 µM	51 µM	D50 (Rattus norvegicus [5]): 48 µM; A50 (Rattus norvegicus [6]): 79 µM; Ratio [7]: 0.6
NS(=O)(=O)c1cc2c(cc1Cl)NC(C1CC3C=CC1C3)NS2(=O)=O (stereo not given) [CYCLOTHIAZIDE]	1.6 µM	9.8 µM	D50 (Rattus norvegicus [5]): >300 µM; A50 (Rattus norvegicus [6]): >300 µM
CC1Nc2cccnc2S(=O)(=O)N1 (stereo not given)	114 µM	270 µM	logD [1]: -0.2; D50 (Rattus norvegicus [5]): 100 µM; A50 (Rattus norvegicus [6]): 154 µM; RIS (Rattus norvegicus [4]): 81%; Ratio [7]: 0.65
O=S1(=O)NCN(CC(F)(F)F)c2ccncc21	110 µM	215 µM	–
O=S1(=O)NCNc2ccncc21	> 1000 µM	> 1000 µM	–
CC1=NS(=O)(=O)c2ncccc2N1	400 µM	900 µM	logD [1]: -0.91; RIS (Rattus norvegicus [4]): 98.7%
CCC1Nc2ccncc2S(=O)(=O)N1 (stereo not given)	> 1000 µM	> 1000 µM	–
CC(C)C1Nc2ccncc2S(=O)(=O)N1 (stereo not given)	> 1000 µM	> 1000 µM	–
O=S1(=O)N=CNc2cccnc21	> 1000 µM	> 1000 µM	–
CC1=Nc2ccc(Cl)cc2S(=O)(=O)N1 [DIAZOXIDE]	448 µM	> 1000 µM	A50 (Rattus norvegicus [8]): >500 µM; D50 (Rattus norvegicus [9]): >500 µM; RIS (Rattus norvegicus [4]): 28.8%
CC1=NS(=O)(=O)c2cnccc2N1C	250 µM	800 µM	–
CC(C)C(C)NC1=NS(=O)(=O)c2cnccc2N1 (stereo not given)	> 1000 µM	> 1000 µM	RIS (Rattus norvegicus [4]): 8.6%
O=S1(=O)NC(c2ccccc2)Nc2ccncc21 (stereo not given)	> 1000 µM	> 1000 µM	–
O=S1(=O)NCN(C2CCCCC2)c2ccncc21	> 1000 µM	> 1000 µM	–
O=S1(=O)c2cnccc2NCN1c1ccccc1	> 100 µM	> 100 µM	–
CC1Nc2ncccc2S(=O)(=O)N1 (stereo not given)	> 1000 µM	> 1000 µM	logD [1]: 0.35; RIS (Rattus norvegicus [4]): 94.8%
CC(C)N1CNc2ccncc2S1(=O)=O	> 300 µM	> 300 µM	–
CN1C=NS(=O)(=O)c2ncccc21	265 µM	645 µM	–

Structure (SMILES)	EC2x [2]	EC5X [3]	also measured
O=S1(=O)NCNc2cccnc21	300 µM	1100 µM	–
CCCCN1CNS(=O)(=O)c2cnccc21	800 µM	> 1000 µM	–
CN1CN(C)S(=O)(=O)c2ncccc21	39 µM	133 µM	–
CCN1CN(C)S(=O)(=O)c2ncccc21	38 µM	96 µM	–
CC1=NS(=O)(=O)c2cccnc2N1	> 1000 µM	> 1000 µM	logD [1]: -0.25; RIS (Rattus norvegicus [4]): 92.8%
CCC(C)NC1=NS(=O)(=O)c2cnccc2N1 (stereo not given)	> 1000 µM	> 1000 µM	RIS (Rattus norvegicus [4]): 9.4%
O=S1(=O)NCNc2ncccc21	> 1000 µM	> 1000 µM	–
CC1Nc2ccncc2S(=O)(=O)N1C (stereo not given)	214 µM	381 µM	–
NC1=NS(=O)(=O)c2cnccc2N1	> 1000 µM	> 1000 µM	RIS (Rattus norvegicus [4]): 104%
CC1=NS(=O)(=O)c2cnccc2N1C(C)C	500 µM	1200 µM	–
CCC(CC)C1Nc2ccncc2S(=O)(=O)N1 (stereo not given)	> 1000 µM	> 1000 µM	–
O=S1(=O)N=CNc2ncccc21	> 1000 µM	> 1000 µM	–
CCCNC1=NS(=O)(=O)c2cnccc2N1	> 1000 µM	> 1000 µM	RIS (Rattus norvegicus [4]): 57.7%
CC1=NS(=O)(=O)c2cnccc2N1	> 1000 µM	> 1000 µM	logD [1]: -0.41; RIS (Rattus norvegicus [4]): 100%
CCC1NS(=O)(=O)c2cnccc2N1C (stereo not given)	800 µM	> 1000 µM	–
CC(C)N1CNS(=O)(=O)c2cnccc21	94 µM	237 µM	RIS (Rattus norvegicus [4]): 101%
O=S1(=O)N=C(C(F)(F)F)Nc2ccncc21	> 1000 µM	> 1000 µM	–
CCCC1Nc2ccncc2S(=O)(=O)N1 (stereo not given)	> 1000 µM	> 1000 µM	–
CC(C)N1CNS(=O)(=O)c2ncccc21	27 µM	41 µM	–
